For data set [1] the following is noted: iontophoresis, rabbit eyes; cited from earlier work.
The conditions of data set [2]: INT; cited from earlier work.
Data set [3] deals with experimentally induced keratitus. To be noted: experimentally induced keratitus in the rabbit eye; cited from earlier work.
Data set [4] in a line: Release of gentamicin into the rabbit eye using hydrogel-probe iontophoresis (Example 5). How it is done: Thirty six healthy rabbits (age 2-3 months, weight 2000 grams) were used. The study conformed with the ARVO Resolution of the Use of Animals in Research. The animals were anesthetized with intramuscular injections of ketamin HCl […] (Park Davis, Morris Plains, N.J.) and xylazine […] (Mobay, Shawnee, Kans.). Iontophoresis was carried out as follows: the distal end of the hydrogel-probe placed in a device as shown in FIG. 2 (diameter of 3 mm and 2 mm thick) was gently applied to the cornea of the rabbit while the anode of the iontophoretic system is inserted into the other end of the device and the cathode is attached to the ear of the animal.
A single concentration of 10 mg/ml gentamicin in the hydrogel-probe (dd) was studied, using two time periods of iontophoresis: long periods (60 seconds) and short periods (10 seconds). Six groups of rabbits, 6 animals per group, were treated with one of the treatments described in the following Table 1.
In group 3, one drop of topical gentamicin (14 mg/ml) was instilled into the eye every 5 minutes for 1 hour. In groups 4 and 5, mock iontophoresis was performed by placing a device containing 10 mg/ml of gentamicin on the cornea for 60 and 10 seconds without switching on the electric current. In group 6 iontophoresis was applied for 2 minutes with the dd containing NaCl 0.9% (instead of gentamicin).
Ten minutes after completion of the iontophoresis, or the control drug delivery technique in each animal, the surface of the eye was washed with 5 ml of NaCl 0.9%. The animals were sacrificed after 15 minutes by injecting an overdose of sodium pentobarbital. The entire cornea was excised with corneal scissors and rinsed again with 5 ml of NaCl 0.9%. The cornea was weighed, minced with a blade and placed into microcentrifuge tubes. To each tube, 0.5 ml 0.01 M phosphate buffered saline (pH 7.2) was added. The tubes were incubated for 18 hours in a water bath heated to 37° C., shaking at 100 oscillations/min. Thereafter the tubes were centrifuged for 10 min. at 2000 rpm. From each tube 125 microliter of the supernatant were assayed for gentamicin concentration using Abbot TDx. The concentration of gentamicin in the cornea was calculated as described before^(5). Gentamicin concentrations are expressed in micrograms per gram of tissue or per milliliter of buffer. 3 way ANOVA test was used for statistical evaluation.

Data set [5] in a line: Effect of current applied and duration of iontophoresis on drug cornea concentration (Experiment 6). Format: in vivo, Albino rabbits. On the set-up: Gentimicin concentration in the cornea, Average: unit not given here. The text has this:
The purpose of this experiment was to determine the effect of the current applied and duration on the drug cornea concentration.

The conditions of data set [6]: INT via the cornea, aphakic rabbit eye; cited from earlier work.
The conditions of data set [7]: INT, drug incorporated in soft agar gel; cited from earlier work.
The conditions of data set [8]: monkey eye, cited from earlier work.
Where [9] appears, read: Group 2: hydrogel probe 10 mg/ml gentamicin, 0.5 mA, 10 sec iontophoresis.
The mark [10] stands for this setting: Group 4: hydrogel probe 10 mg/ml gentamicin, 0.0 mA, 60 sec (mock iontophoresis).

“And” between values parts separate entries of the source, which are not always exact repeats. Equal values may be shown once.

As for `CC1(C)S[C@@H]2[C@H](NC(=O)[C@H](C(=O)O)c3ccsc3)C(=O)N2[C@H]1C(=O)O` [ticarcillin], the “concentrations in the vitreous” value in data set [1] is listed as “high concentrations”.

Consider `Cc1nnc(SCC2=C(C(=O)O)N3C(=O)[C@@H](NC(=O)Cn4cnnn4)[C@H]3SC2)s1` [cefazoline], for which the “concentrations in the vitreous” value in data set [1] was “high concentrations”.

As to `CC(=O)N1CCN(c2ccc(OCC3COC(Cn4ccnc4)(c4ccc(Cl)cc4Cl)O3)cc2)CC1` (stereo not shown) [ketaconazole], the “penetration into the animals' anterior chamber” value in data set [2] is “increased the penetration”.

Regarding `NC[C@H]1O[C@H](O[C@H]2[C@H](O)[C@@H](O[C@H]3O[C@H](CO)[C@@H](O)[C@H](N)[C@H]3O)[C@H](N)C[C@@H]2N)[C@H](N)C[C@@H]1O` [tobramycin], the “efficacy of INT versus topical administration” value in data set [3] is recorded as “more effective than topical administration”.

On to gentamicin, for which the “Gentamicin concentration in cornea, Average” value stood at 33.1 ± 9.3 µg/g in data set [4] (Group 1: hydrogel probe 10 mg/ml gentamicin, 0.5 mA, 60 sec iontophoresis); 6.5 ± 0.8 µg/g in data set [4] (setting [9]); 2.1 ± 1.0 µg/g in data set [4] (Group 3: eye drops, one drop every 5 minutes for 1 hour, no current); 2.6 ± 0.3 µg/g in data set [4] (setting [10]); 1.1 ± 0.4 µg/g in data set [4] (Group 5: hydrogel probe 10 mg/ml gentamicin, 0.0 mA, 10 sec (mock iontophoresis)). Also, the “Gentamicin concentration in cornea, single eyes (Eye No. 1-6)” value is 6.27 µg/g and 6.53 µg/g and 4.92 µg/g and 6.70 µg/g and 7.05 µg/g and 7.52 µg/g in data set [4] (setting [9]); 2.01 µg/g and 2.55 µg/g and 2.78 µg/g and 2.89 µg/g and 2.70 µg/g and 2.96 µg/g in data set [4] (setting [10]). The “Gentimicin concentration in the cornea, Average” value in data set [5] (Group 1: hydrogel probe 10 mg/ml, 0.0 mA, 60 sec) was found to be 2.71 ± 2.0; in data set [5] (Group 2: hydrogel probe 10 mg/ml, 0.1 mA, 60 sec), 4.5 ± 3.5; in data set [5] (Group 3: hydrogel probe 10 mg/ml, 0.3 mA, 60 sec) it was 42.2 ± 27.1; in data set [5] (Group 4: hydrogel probe 10 mg/ml, 0.6 mA, 60 sec), 88.6 ± 38.6; in data set [5] (Group 5: hydrogel probe 10 mg/ml, 0.0 mA, 10 sec), 0.0; in data set [5] (Group 6: hydrogel probe 10 mg/ml, 0.1 mA, 10 sec), 4.0 ± 2.4. The “Gentimicin concentration in the cornea, Average” value turned out to be 10.2 ± 4.1 in data set [5] (Group 7: hydrogel probe 10 mg/ml, 0.3 mA, 10 sec); 22.0 ± 7.8 in data set [5] (Group 8: hydrogel probe 10 mg/ml, 0.6 mA, 10 sec); 30 ± 18.6 in data set [5] (Group 9: subconj. inj., 0.3% w/v, no current). For the same molecule, the “gentamicin concentrations in the intraocular fluid” value in data set [5] (Groups 3 and 4 (0.3 and 0.6 mA, 60 sec)) is “High gentamicin concentrations”. For the same molecule, the “increase in drug concentration as compared with SC injections” value in data set [5] (current of 0.6 mAmp) was 3 times. The “increase in drug concentration over a non-current application (diffusion only)” value in data set [5] (current of 0.6 mAmp) was “about 30 times”. Besides, the “levels of gentamicin in the vitreous” value in data set [6] is reported as “high levels”. Moreover, the “concentrations transferred into the rabbit cornea” value in data set [7] is listed as “marked concentrations”. Also, in data set [8] (transscleral INT using solutions, for several hours), the “concentrations of gentamicin in the vitreous” value is “bactericidal concentrations”. The “damage to the retina, repeated Electro Retino Graphia (ERG) tests” value in data set [8] (transscleral INT) is “did not show damage to the retina”. In data set [1], the “concentrations in the vitreous” value is “high concentrations”.
